Measured values: patent US9945841B2, “Cell cycle measuring method based on an electrochemical method” (INDUSTRY-UNIVERSITY COOPERATION FOUNDATION SOGANG UNIVERSITY, priority 2011, dated 2018)

How the values were obtained:
Assay type in all cases: cell-based, rat
[1] = system: phosphohistone (p-HH^3); experiment: Western blot of synchronized PC12 cells, G2/M-phase specific protein p-HH3; details: Western blot of G1/S- or G2/M-blocked PC12 cells (FIG. 3d)
Method: (§1) The cell-immobilized electrode was treated with 2 mM thymidine in culture medium (RPMI 1640) for 18 hrs, followed by an 8 hrs release (replaced by fresh medium), and then again with 2 mM thymidine for another 18 hrs to block cells in G1/S-phase (FIG. 1c). Similarly, another cell-immobilized electrode was treated initially with 2 mM thymidine as mentioned before for 18 hrs, followed by a 4 hrs release (replaced by fresh medium), and then with 100 ng/ml of nocodazole for another 10 h to block cells in G2/M-phase (FIG. 1c). Therefore, the working electrodes were prepared for electrochemical signal analysis of the cells in different phases of the cell cycle. Furthermore, for the time-dependent progression of G1/S-phase towards G2/M-phase, G1/S-blocked cells were released in fresh medium containing 10% FBS for several hours to perform electrochemical measurements. The synchronized PC12 cell pellet was solubilized for 15 min at 4° C. in lysis buffer. Lysates were centrifuged at 13,000 g for 30 min at 4° C. in order to remove insoluble material. The supernatant was then collected, and the protein concentration was determined using BCA protein assay reagent (Pierce Chemicals). […]

[2] = system: PC12 cells; experiment: FACS cell-cycle distribution of on-chip synchronized cells; details: 2 mM thymidine 18 hrs
Method: (§2) A silicon-based gold electrode was first cleaned with freshly prepared piranha solution (1:3 mixture of 30% H2O2 and concentrated H2SO4) for 5 min and then rinsed thoroughly with double-distilled water. The electrode was then carefully polished by sonication in absolute alcohol and double-distilled water for 5 min. Finally, the electrode was electrochemically cleaned in 0.5 M H2SO4 until a stable cyclic voltammogram was obtained and then dried with purified nitrogen. After the pretreatment, a well ordered oligopeptide (RGD-MAP-C) was fabricated on the freshly cleaned gold electrode as reported in our previous work (15). For the electrochemical measurements, a 2 cm×1 cm×0.5 cm (width×length×height) cell chip chamber was fabricated by fixing a plastic chamber (Lab-Tek®, Thermo fisher scientific, USA) to the Au working electrode using PDMS (Polydimethylsiloxane). Afterward, rat pheochromocytoma (PC12) cells were seeded on the electrode at a density of 2×10^5 cells/chip and then immobilized via RGD-integrin interaction for 24 hrs in a standard cell culture environment. The cell-immobilized electrode was treated with 2 mM thymidine in culture medium (RPMI 1640) for 18 hrs, followed by an 8 hrs release (replaced by fresh medium), and then again with 2 mM thymidine for another 18 hrs to block cells in G1/S-phase (FIG. 1c). […]

[3] = system: PC12 cells; experiment: Differential pulse voltammetry (DPV) of cells on Au/RGD-MAP-C cell chip; details: PC12 cells on Au electrode; double thymidine block; PBS 0.01 M pH 7.4; vs Ag/AgCl (FIG. 2b)
Method: as §2

[4] = system: cyclin B1; experiment: Western blot of synchronized PC12 cells, cyclin B1; details: Western blot of G1/S- or G2/M-blocked PC12 cells (FIG. 3d)
Method: as §1

Compound | p-HH^3 expression [1] | cells synchronized in G2/M-phase ([2]; 4 hrs release, 100 ng/ml nocodazole 10 h, FACS (FIG. 3c)) [%] | DPV peak potential of G1/S-phase blocked cells [3] | cyclin B1 expression [4] | cells fixed in G1/S-phase ([2]; 8 hrs release, FACS (FIG. 3b))
COC(=O)Nc1nc2ccc(C(=O)c3cccs3)cc2[nH]1 [nocodazole] | expressed | ~72 |  |  | 
Cc1cn([C@H]2C[C@H](O)[C@@H](CO)O2)c(=O)[nH]c1=O [thymidine, Thymidine] | absent |  | +50 mV | expressed dominantly | Approximately 75%
